In patent US7060716B2, “Tryptase inhibitors” (Altana Pharma AG, priority 2001, dated 2006):
Structures can show the parent of a compound that is named as a salt.

Target: T1, human tryptase (Homo sapiens, UniProt P20231)
T1 construct: from tissue
Assay: Inhibition of human tryptase (apparent dissociation constant Kiapp, chromogenic substrate tos-Gly-Pro-Arg-pNA)
Assay type: biochemical
Conditions: apparent dissociation constant in the presence of substrate; heparin 0.1–50 μg/ml; equilibrium conditions; read-out: Klapp
Description: The documented pathophysiological effects of mast cell tryptase are caused directly by the enzymatic activity of the protease. Accordingly, they are reduced or blocked by inhibitors which inhibit the enzymatic activity of the tryptase. A suitable measure for the affinity of a reversible inhibitor to the target protease is the equilibrium dissociation constant Ki of the enzyme-inhibitor complex. This Ki value can be determined via the effect of the inhibitor on the tryptase-induced cleavage of a chromogenic peptide-p-nitroanilide substrate or a fluorogenic peptide-aminomethylcoumarin substrate.
The dissociation constants for the tryptase-inhibitor complexes are determined under equilibrium conditions in accordance with the general proposals of Bieth (Bieth J G, Pathophysiological Interpretation of kinetic constants of protease inhibitors, Bull. Europ. Physiopath. Resp. 16:183–195, 1980) and the methods of Sommerhoff et al. (Sommerhoff C P et al., A Kazal-type inhibitor of human mast cell tryptase: Isolation from the medical leech Hirudo medicinalis, characterization, and sequence analysis, Biol. Chem. Hoppe-Seyler 375: 685–694, 1994).
Human tryptase is isolated from lung tissue or prepared recombinantly; the specific activity of the protease, determined by titration, is usually greater than 85% of the theoretical value. […]

T1 sequence (P20231 31-275): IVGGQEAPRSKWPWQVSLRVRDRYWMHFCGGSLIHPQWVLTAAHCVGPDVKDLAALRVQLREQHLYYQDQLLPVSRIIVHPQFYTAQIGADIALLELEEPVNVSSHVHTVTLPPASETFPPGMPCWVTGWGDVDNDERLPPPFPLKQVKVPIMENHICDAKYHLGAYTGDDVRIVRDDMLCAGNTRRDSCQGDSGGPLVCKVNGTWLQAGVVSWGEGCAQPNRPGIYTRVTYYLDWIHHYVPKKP

Ki	SMILES
2.6 nM	NCc1cccc(CNC(=O)OCC#Cc2cccc(C#CCOC(=O)NCc3cccc(CN)c3)n2)c1 [Compound 1, 2,6-Bis-[3-(3-aminomethylbenzylaminocarbonyloxy)prop-1-ynyl]pyridine trihydrochloride]
6 nM	NCc1ccc(CNC(=O)OCC#Cc2cccc(C#CCOC(=O)NCc3ccc(CN)cc3)n2)cc1 [Compound 2, 2,6-Bis-[3-(4-aminomethylbenzylaminocarbonyloxy)prop-1-ynyl]pyridine trihydrochloride]
